# Measurements as given in PubChem BioAssay AID1259411 (Chemical Carcinogenesis Research Information System (CCRIS), 2018).
# Active and inactive are the calls of the source. No rule for the calls is given here.
# System: rodent carcinogenicity bioassays, tumor incidence
# Assay: CCRIS carcinogenicity studies
# Outline: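 Archive of carcinogenicity, mutagenicity, tumor promotion and tumor inhibition results drawn from journals, NCI reports and other sources, expert-reviewed; covers 1985-2011 and is no longer updated.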
compound,measurement,setting,value
CCCCNC(=O)n1c(NC(=O)OC)nc2ccccc21,carcinogen call,"Species: Mouse, Strain/Sex: CD-1/Female (80/group), Route: Oral, Dose: 0, 500, 1500, 7500 for 37 wk reduced to 5000 ppm in feed for 2 yr, Dose: 0, 500, 1500, 7500 for 37 wk reduced to 5000 ppm in feed for 2 yr, Tumor Site: Type of Lesion: Liver: Hepatocellular adenoma (2/64, 2/60, 7/73, 7/68), Hepatocellular carcinoma (2/64, 7/60, 6/73, 14/68), Combined (4/, Tumor Site: Type of Lesion: Liver: Hepatocellular adenoma (2/64, 2/60, 7/73, 7/68), Hepatocellular carcinoma (2/64, 7/60, 6/73, 14/68), Combined (4/",active; positive; purity 99%; additional study details in california epa department of p
same,carcinogen call,"Species: Mouse, Strain/Sex: CD-1/Male (80/group), Route: Oral, Dose: 0, 500, 1500, 7500 for 37 wk reduced to 5000 ppm in feed for 2 yr, Dose: 0, 500, 1500, 7500 for 37 wk reduced to 5000 ppm in feed for 2 yr, Tumor Site: Type of Lesion: Liver: Hepatocellular adenoma (9/60, 9/75, 11/73, 10/76), Hepatocellular carcinoma (16/60, 26/75, 41/73, 17/76), Combine, Tumor Site: Type of Lesion: Liver: Hepatocellular adenoma (9/60, 9/75, 11/73, 10/76), Hepatocellular carcinoma (16/60, 26/75, 41/73, 17/76), Combine",active; positive; purity 99%; additional study details in california epa department of p
CCCOC(=O)c1cc(O)c(O)c(O)c1,carcinogen call,"Species: MOUSE, Strain/Sex: B6C3F1/FEMALE, Route: ORAL, Dose: 0, 6000, 12000 PPM IN DIET FOR 103 WK (STUDY DURATION: 103 WK), Dose: 0, 6000, 12000 PPM IN DIET FOR 103 WK (STUDY DURATION: 103 WK)",inactive; negative
same,carcinogen call,"Species: MOUSE, Strain/Sex: B6C3F1/MALE, Route: ORAL, Dose: 0, 6000, 12000 PPM IN DIET FOR 103 WK (STUDY DURATION: 103 WK), Dose: 0, 6000, 12000 PPM IN DIET FOR 103 WK (STUDY DURATION: 103 WK), Tumor Site: Type of Lesion: HEMATOPOIETIC SYSTEM: MALIGNANT LYMPHOMA",equivocal
same,carcinogen call,"Species: RAT, Strain/Sex: F344/FEMALE, Route: ORAL, Dose: 0, 6000, 12000 PPM IN DIET FOR 103 WK (STUDY DURATION: 103 WK), Dose: 0, 6000, 12000 PPM IN DIET FOR 103 WK (STUDY DURATION: 103 WK)",inactive; negative
same,carcinogen call,"Species: RAT, Strain/Sex: F344/MALE, Route: ORAL, Dose: 0, 6000, 12000 PPM IN DIET FOR 103 WK (STUDY DURATION: 103 WK), Dose: 0, 6000, 12000 PPM IN DIET FOR 103 WK (STUDY DURATION: 103 WK), Tumor Site: Type of Lesion: PREPUTIAL GLAND: CARCINOMA OR ADENOMA OR ADENOCARCINOMA, PANCREAS: ISLET CELL ADENOMA OR CARCINOMA, ADRENAL GLAND: PHEOC, Tumor Site: Type of Lesion: PREPUTIAL GLAND: CARCINOMA OR ADENOMA OR ADENOCARCINOMA, PANCREAS: ISLET CELL ADENOMA OR CARCINOMA, ADRENAL GLAND: PHEOC",equivocal
CCOCn1c(-c2ccc(Cl)cc2)c(C#N)c(Br)c1C(F)(F)F,carcinogen call,"Species: Mouse, Strain/Sex: CD-1/Female (65/group), Route: Oral, Dose: 0, 20, 120, 240 ppm in diet for 80 wk, Dose: 0, 20, 120, 240 ppm in diet for 80 wk",inactive; negative (study details not given in source; purity 94.5%)
same,carcinogen call,"Species: Mouse, Strain/Sex: CD-1/Male (65/group), Route: Oral, Dose: 0, 20, 120, 240 ppm in diet for 80 wk, Dose: 0, 20, 120, 240 ppm in diet for 80 wk",inactive; negative (study details not given in source; purity 94.5%)
same,carcinogen call,"Species: Rat, Strain/Sex: Sprague-Dawley/Female (65/group), Route: Oral, Dose: 0, 60, 300, 600 ppm in diet for up to 104 wk, Dose: 0, 60, 300, 600 ppm in diet for up to 104 wk",inactive; negative (study details not given in source; purity 94.5%)
same,carcinogen call,"Species: Rat, Strain/Sex: Sprague-Dawley/Male (65/group), Route: Oral, Dose: 0, 60, 300, 600 ppm in diet for up to 104 wk, Dose: 0, 60, 300, 600 ppm in diet for up to 104 wk",inactive; negative (study details not given in source; purity 94.5%)
[O]=[Al][O][Si](=O)O[Si](=O)[O][Al]=[O],carcinogen call,"Species: Rat, Strain/Sex: Wistar/Female (48/group), Route: Intratracheal, Dose: 6 mg instillations of 0.01-0.03 um particles given as 10 or 20 doses wk 26, study duration 115 or 121 wk or no treatment, Tumor Site: Type of Lesion: Lung: Bronchiolo-alveolar adenoma (12/48 and 11/47 in experimental animals vs 1/46 control animals), bronchiolo-alveolar",active; positive
